pIC50: −log10 of the molar value. Where two headings read alike, the source gives them in different places.
Biological target: T1, pSTAT3 (pY705-STAT3) (Homo sapiens, UniProt P40763)
T1 construct: host or cells: cryopreserved PBMC
Experiment: MSD-pSTAT-PBMC Assay (pSTAT3, IL-6 stimulated)
Type: cell-based
Procedure, shortened: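 Human PBMCs (50,000 cells/well for STAT3, 25,000 for STAT6) treated with compound 3 h, then stimulated 10 min with 10 ng/mL IL-6 or 1 ng/mL IL-4. Lysate pSTAT3 (pY705) or pSTAT6 (pY641) measured by MSD sandwich electrochemiluminescence. Signal minus unstimulated, normalized to DMSO; IC50 by variable-slope nonlinear regression.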

[1] = PBMC, compound 3 hrs, then 10 ng/mL IL-6 for 10 min, MSD pY705-STAT3, read-out: pSTAT3

T1 sequence (P40763 whole entry): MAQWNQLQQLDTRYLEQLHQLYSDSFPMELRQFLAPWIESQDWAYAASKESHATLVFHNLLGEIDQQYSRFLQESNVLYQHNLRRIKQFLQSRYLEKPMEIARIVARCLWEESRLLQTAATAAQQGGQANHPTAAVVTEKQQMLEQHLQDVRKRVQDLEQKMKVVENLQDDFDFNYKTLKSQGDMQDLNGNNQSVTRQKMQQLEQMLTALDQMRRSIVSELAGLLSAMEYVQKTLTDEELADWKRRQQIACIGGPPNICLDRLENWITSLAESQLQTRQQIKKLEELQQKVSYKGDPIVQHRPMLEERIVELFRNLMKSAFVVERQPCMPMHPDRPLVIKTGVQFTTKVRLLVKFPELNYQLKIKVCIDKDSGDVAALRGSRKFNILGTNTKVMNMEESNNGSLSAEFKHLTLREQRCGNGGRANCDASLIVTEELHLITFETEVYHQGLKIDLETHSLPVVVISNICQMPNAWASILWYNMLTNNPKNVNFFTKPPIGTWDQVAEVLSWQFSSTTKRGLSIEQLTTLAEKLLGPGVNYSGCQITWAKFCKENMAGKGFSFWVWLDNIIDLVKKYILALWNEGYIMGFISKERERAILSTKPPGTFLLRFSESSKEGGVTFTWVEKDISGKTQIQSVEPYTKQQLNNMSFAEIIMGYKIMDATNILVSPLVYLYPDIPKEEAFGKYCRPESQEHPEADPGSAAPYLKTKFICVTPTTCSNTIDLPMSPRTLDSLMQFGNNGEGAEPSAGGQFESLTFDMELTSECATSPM

Compound | pIC50 [1] | pIC50
CCCOC(=O)[C@H](C)NP(=O)(Cc1ccc2sc(C(=O)N[C@H]3C[C@H]4C[C@H]4C[C@H]4CC[C@@H](C(=O)N[C@H]5CN(c6cccnc6)C[C@@H]5F)N4C3=O)cc2c1)Oc1ccccc1 (stereo partly drawn) [Compound 269, propyl(((2-(((3S,6S,7aR,8aS,9aR)-3-(((3S,4S)-4-fluoro-1-(pyridin-3-yl)pyrrolidin-3-yl)carbamoyl)-5-oxodecahydro-1H-cyclopropa[d]pyrrolo[1,2-a]azocin-6-yl)carbamoyl)benzo[b]thiophen-5-yl)methyl)(phenoxy)phosphoryl)-L-alaniante] | > 7.00 | 
Cc1ccncc1C1CN(C(=O)[C@@H]2CC[C@@H]3C[C@H]4C[C@H]4C[C@H](NC(=O)c4cc5cc(C(F)P(=O)(N[C@@H](C)C(=O)OC(C)C)Oc6ccccc6)ccc5s4)C(=O)N32)C1 (stereo partly drawn) [Compound 281, isopropyl ((fluoro(2-(((3S,6S,7aS,8aR,9aR)-3-(3-(4-methylpyridin-3-yl)azetidine-1-carbonyl)-5-oxodecahydro-1H-cyclopropa[d]pyrrolo[1,2-a]azocin-6-yl)carbamoyl)benzo[b]thiophen-5-yl)methyl)(phenoxy)phosphoryl)-L-alaninate] |  | > 7.00
CCCOC(=O)[C@H](CC)NP(=O)(Oc1ccccc1)C(F)c1ccc2sc(C(=O)N[C@H]3C[C@@H]4C[C@@H]4C[C@H]4CC[C@@H](C(=O)N5CC(c6cnccc6C)C5)N4C3=O)cc2c1 (stereo partly drawn) [Compound 283, propyl(2S)-2-(((fluoro(2-(((3S,6S,7aS,8aR,9aR)-3-(3-(4-methylpyridin-3-yl)azetidine-1-carbonyl)-5-oxodecahydro-1H-cyclopropa[d]pyrrolo[1,2-a]azocin-6-yl)carbamoyl)benzo[b]thiophen-5-yl)methyl)(phenoxy)phosphoryl)amino)butanoate] |  | > 7.00
CCCOC(=O)[C@H](COC)NP(=O)(Oc1ccccc1)C(F)c1ccc2sc(C(=O)N[C@H]3C[C@@H]4C[C@@H]4C[C@H]4CC[C@@H](C(=O)N5CC(c6cnccc6C)C5)N4C3=O)cc2c1 (stereo partly drawn) [Compound 284, propyl N-((fluoro(2-(((3S,6S,7aS,8aR,9aR)-3-(3-(4-methylpyridin-3-yl)azetidine-1-carbonyl)-5-oxodecahydro-1H-cyclopropa[d]pyrrolo[1,2-a]azocin-6-yl)carbamoyl)benzo[b]thiophen-5-yl)methyl)(phenoxy)phosphoryl)-O-methyl-L-serinate] |  | > 7.00
CCCOC(=O)C(C)(C)NP(=O)(Oc1ccccc1)C(F)c1ccc2sc(C(=O)N[C@H]3C[C@@H]4C[C@@H]4C[C@H]4CC[C@@H](C(=O)N5CC(c6cnccc6C)C5)N4C3=O)cc2c1 (stereo partly drawn) [Compound 285, propyl 2-(((fluoro(2-(((3S,6S,7aS,8aR,9aR)-3-(3-(4-methylpyridin-3-yl)azetidine-1-carbonyl)-5-oxodecahydro-1H-cyclopropa[d]pyrrolo[1,2-a]azocin-6-yl)carbamoyl)benzo[b]thiophen-5-yl)methyl)(phenoxy)phosphoryl)amino)-2-methylpropanoate] | > 7.00 | 
CCCOC(=O)[C@H](C)NP(=O)(OCC(F)(F)F)C(F)c1ccc2sc(C(=O)N[C@H]3C[C@@H]4C[C@@H]4C[C@H]4CC[C@@H](C(=O)N5CC(c6cnccc6C)C5)N4C3=O)cc2c1 (stereo partly drawn) [Compound 287, propyl ((fluoro(2-(((3S,6S,7aS,8aR,9aR)-3-(3-(4-methylpyridin-3-yl)azetidine-1-carbonyl)-5-oxodecahydro-1H-cyclopropa[d]pyrrolo[1,2-a]azocin-6-yl)carbamoyl)benzo[b]thiophen-5-yl)methyl)(2,2,2-trifluoroethoxy)phosphoryl)-L-alaninate] | > 7.00 | 
CC(C)(C)C(=O)SCCOP(=O)(OCCSC(=O)C(C)(C)C)C(F)c1ccc2sc(C(=O)N[C@H]3C[C@@H]4C[C@@H]4C[C@H]4CC[C@@H](C(=O)N5CC(c6cnccc6F)C5)N4C3=O)cc2c1 (stereo partly drawn) [Compound 306, S,S′-((((fluoro(2-(((3S,6S,7aS,8aR,9aR)-3-(3-(4-fluoropyridin-3-yl)azetidine-1-carbonyl)-5-oxodecahydro-1H-cyclopropa[d]pyrrolo[1,2-a]azocin-6-yl)carbamoyl)benzo[b]thiophen-5-yl)methyl)phosphoryl)bis(oxy))bis(ethane-2,1-diyl))bis(2,2-dimethylpropanethioate)] | > 7.00 | 
CCCOC(=O)[C@H](C)NP(=O)(Oc1ccccc1)C(F)c1ccc2sc(C(=O)N[C@H]3C[C@@H]4C[C@@H]4C[C@H]4CC[C@@H](C(=O)N5CC(c6cnccc6C)C5)N4C3=O)cc2c1 (stereo partly drawn) [Compound 307, propyl ((fluoro(2-(((3S,6S,7aS,8aR,9aR)-3-(3-(4-methylpyridin-3-yl)azetidine-1-carbonyl)-5-oxodecahydro-1H-cyclopropa[d]pyrrolo[1,2-a]azocin-6-yl)carbamoyl)benzo[b]thiophen-5-yl)methyl)(phenoxy)phosphoryl)-L-alaninate] | > 7.00 | 
CC(C)(C)C(=O)SCCOP(=O)(OCCSC(=O)C(C)(C)C)C(F)(F)c1ccc2sc(C(=O)N[C@H]3C[C@@H]4C[C@@H]4C[C@H]4CC[C@@H](C(=O)N5CC(c6cnccc6F)C5)N4C3=O)cc2c1 [Compound 308, S,S′-((((difluoro(2-(((3S,6S,7aS,8aR,9aR)-3-(3-(4-fluoropyridin-3-yl)azetidine-1-carbonyl)-5-oxodecahydro-1H-cyclopropa[d]pyrrolo[1,2-a]azocin-6-yl)carbamoyl)benzo[b]thiophen-5-yl)methyl)phosphoryl)bis(oxy))bis(ethane-2,1-diyl))bis(2,2-dimethylpropanethioate)] | > 7.00 | 
CCCOC(=O)[C@H](C)NP(=O)(Oc1ccccc1)C(F)c1ccc2sc(C(=O)N[C@H]3C[C@@H]4C[C@@H]4C[C@H]4CC[C@@H](C(=O)N5CC(c6nncn6C)C5)N4C3=O)cc2c1 (stereo partly drawn) [Compound 309, propyl ((fluoro(2-(((3S,6S,7aS,8aR,9aR)-3-(3-(4-methyl-4H-1,2,4-triazol-3-yl)azetidine-1-carbonyl)-5-oxodecahydro-1H-cyclopropa[d]pyrrolo[1,2-a]azocin-6-yl)carbamoyl)benzo[b]thiophen-5-yl)methyl)(phenoxy)phosphoryl)-L-alaninate] | < 5.52 | 
CCCOC(=O)[C@H](C)NP(=O)(Oc1ccccc1)C(F)c1ccc2sc(C(=O)N[C@H]3C[C@@H]4C[C@@H]4C[C@H]4CC[C@@H](C(=O)N5CC(N6CCS(=O)(=O)CC6)C5)N4C3=O)cc2c1 (stereo partly drawn) [Compound 310, propyl(((2-(((3S,6S,7aS,8aR,9aR)-3-(3-(1,1-dioxidothiomorpholino)azetidine-1-carbonyl)-5-oxodecahydro-1H-cyclopropa[d]pyrrolo[1,2-a]azocin-6-yl)carbamoyl)benzo[b]thiophen-5-yl)fluoromethyl)(phenoxy)phosphoryl)-L-alaninate] |  | < 5.52
CCCOC(=O)[C@H](C)NP(=O)(Cc1ccc2sc(C(=O)N[C@H]3C[C@@H]4C[C@@H]4C[C@H]4CC[C@@H](C(=O)N5CC(c6cnccc6C)C5)N4C3=O)cc2c1)OCC(F)(F)F (stereo partly drawn) [Compound 311, propyl(((2-(((3S,6S,7aS,8aR,9aR)-3-(3-(4-methylpyridin-3-yl)azetidine-1-carbonyl)-5-oxodecahydro-1H-cyclopropa[d]pyrrolo[1,2-a]azocin-6-yl)carbamoyl)benzo[b]thiophen-5-yl)methyl)(2,2,2-trifluoroethoxy)phosphoryl)-L-alaninate] | > 7.00 | 
CC(C)(C)C(=O)SCCOP(=O)(OCCSC(=O)C(C)(C)C)C(F)(F)c1ccc2sc(C(=O)N[C@H]3C[C@@H]4C[C@@H]4C[C@H]4CC[C@@H](C(=O)N5CC(c6ccccn6)C5)N4C3=O)cc2c1 [Compound 314] | > 7.00 | 
CCCOC(=O)[C@H](C)NP(=O)(Oc1ccccc1)C(F)c1ccc2sc(C(=O)N[C@H]3C[C@@H]4C[C@@H]4C[C@H]4CC[C@@H](C(=O)N5CC(c6ncccn6)C5)N4C3=O)cc2c1 (stereo partly drawn) [Compound 315, propyl ((fluoro(2-(((3S,6S,7aS,8aR,9aR)-5-oxo-3-(3-(pyrimidin-2-yl)azetidine-1-carbonyl)decahydro-1H-cyclopropa[d]pyrrolo[1,2-a]azocin-6-yl)carbamoyl)benzo[b]thiophen-5-yl)methyl)(phenoxy)phosphoryl)-L-alaninate] | 6.00 to 7.00 | 
CCCOC(=O)[C@H](C)NP(=O)(Oc1ccccc1)C(F)c1ccc2sc(C(=O)N[C@H]3C[C@@H]4C[C@@H]4C[C@H]4CC[C@@H](C(=O)N5CC(c6ccon6)C5)N4C3=O)cc2c1 (stereo partly drawn) [Compound 316, propyl ((fluoro(2-(((3S,6S,7aS,8aR,9aR)-3-(3-(isoxazol-3-yl)azetidine-1-carbonyl)-5-oxodecahydro-1H-cyclopropa[d]pyrrolo[1,2-a]azocin-6-yl)carbamoyl)benzo[b]thiophen-5-yl)methyl)(phenoxy)phosphoryl)-L-alaninate] | > 7.00 | 
CCCOC(=O)[C@H](C)NP(=O)(Oc1ccccc1)C(F)c1ccc2sc(C(=O)N[C@H]3C[C@H]4C[C@H]4C[C@H]4CC[C@@H](C(=O)N5CC(c6cnccc6OC)C5)N4C3=O)cc2c1 (stereo partly drawn) [Compound 319, propyl ((fluoro(2-(((3S,6S,7aR,8aS,9aR)-3-(3-(4-methoxypyridin-3-yl)azetidine-1-carbonyl)-5-oxodecahydro-1H-cyclopropa[d]pyrrolo[1,2-a]azocin-6-yl)carbamoyl)benzo[b]thiophen-5-yl)methyl)(phenoxy)phosphoryl)-L-alaninate] | > 7.00 | 
CCCOC(=O)[C@H](C)NP(=O)(Oc1ccccc1)C(F)c1ccc2sc(C(=O)N[C@H]3C[C@H]4C[C@H]4C[C@H]4CC[C@@H](C(=O)N5CC(c6cnccc6C)C5)N4C3=O)cc2c1 (stereo partly drawn) [Compound 321, propyl ((fluoro(2-(((3S,6S,7aR,8aS,9aR)-3-(3-(4-methylpyridin-3-yl)azetidine-1-carbonyl)-5-oxodecahydro-1H-cyclopropa[d]pyrrolo[1,2-a]azocin-6-yl)carbamoyl)benzo[b]thiophen-5-yl)methyl)(phenoxy)phosphoryl)-L-alaninate] | > 7.00 | 

Source: patent US20250215030A1, “STAT MODULATORS AND USES THEREOF” (Recludix Pharma, Inc., priority 2022, published 2025)
